Key:
Assay type in all cases: cell-based
[1] = biological target: T1, farnesoid X receptor [FXR] (Homo sapiens, UniProt Q96RI1); assay: Gal4 hybrid reporter gene assay FXR (selectivity profiling)
T1 construct: expressed in transfected cells; host or cells: HEK293T
T1 sequence (Q96RI1 262-486 limits assumed): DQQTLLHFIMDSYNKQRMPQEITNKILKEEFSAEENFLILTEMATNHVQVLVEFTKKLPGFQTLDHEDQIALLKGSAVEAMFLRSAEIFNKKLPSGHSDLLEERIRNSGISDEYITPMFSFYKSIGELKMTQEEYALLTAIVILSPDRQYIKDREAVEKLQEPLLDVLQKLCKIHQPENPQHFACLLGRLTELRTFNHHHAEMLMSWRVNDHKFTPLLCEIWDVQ
Method: (§1) Moreover, 7 was characterized for its ability to modulate RXR target gene expression under more physiological conditions. Hepatoma cells (HepG2) were incubated with 7 (30 µM) or reference RXR agonist bexarotene (9, 1 µM) for eight hours and mRNA expression of RXR regulated genes ATP-binding cassette transporter A1 (ABCA1), angiopoietin like protein 4 (ANGPTL4) and apolipoprotein E (ApoE) was analysed by quantitative real-time PCR.
(§2) The Gal4 hybrid reporter gene assays were conducted as reported previously[39]–[41]. pFA-CMV-based constructs comprising the ligand binding domain of the human nuclear receptor in question were used as expression plasmids for the chimera receptors. pFR-Luc (Stratagene) served as reporter plasmid and pRL-SV40 (Promega) for normalization of transfection efficiency and cell growth. The assays were conducted in 96-well format in HEK293T cells that were cultured as described previously[39]–[41]. Transient transfection was carried out using Lipofectamine LTX reagent (Invitrogen) according to the manufacturer’s protocol. After transfection and incubation with test compounds (12–14 h), cells were assayed for luciferase activity using Dual-Glo™ Luciferase Assay System (Promega) according to the manufacturer’s protocol. Luminescence was measured with an Infinite M200 luminometer (Tecan Deutschland GmbH). […]

[2] = biological target: T2, pregnane X receptor [PXR] (Homo sapiens, UniProt O75469); assay: Gal4 hybrid reporter gene assay PXR (selectivity profiling)
T2 construct: expressed in transfected cells; host or cells: HEK293T
T2 sequence (O75469 146-433 limits assumed): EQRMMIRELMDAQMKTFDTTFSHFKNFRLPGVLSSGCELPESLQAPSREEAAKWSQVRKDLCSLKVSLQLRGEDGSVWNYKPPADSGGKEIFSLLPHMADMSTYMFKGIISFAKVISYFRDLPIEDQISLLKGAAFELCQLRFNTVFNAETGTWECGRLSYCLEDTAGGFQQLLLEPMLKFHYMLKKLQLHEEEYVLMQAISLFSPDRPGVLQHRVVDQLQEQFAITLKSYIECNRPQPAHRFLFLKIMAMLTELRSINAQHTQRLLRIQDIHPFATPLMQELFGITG
Method: as §1, §2

vitamin D receptor [VDR] = biological target: T3, vitamin D receptor [VDR] (Homo sapiens, UniProt P11473); assay: Gal4 hybrid reporter gene assay VDR (selectivity profiling)
T3 construct: expressed in transfected cells; host or cells: HEK293T
T3 sequence (P11473 127-423 limits assumed): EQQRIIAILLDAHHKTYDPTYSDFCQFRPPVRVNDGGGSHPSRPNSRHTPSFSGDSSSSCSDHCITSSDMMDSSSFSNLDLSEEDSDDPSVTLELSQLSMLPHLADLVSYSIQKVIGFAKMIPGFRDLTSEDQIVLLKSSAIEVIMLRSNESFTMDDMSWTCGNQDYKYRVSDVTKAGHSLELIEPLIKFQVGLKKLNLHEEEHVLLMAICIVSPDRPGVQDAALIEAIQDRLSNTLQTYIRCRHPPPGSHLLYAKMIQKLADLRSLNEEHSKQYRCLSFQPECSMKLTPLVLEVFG
Method: as §1, §2

[3] = biological target: T4, constitutive androstane receptor [CAR] (Homo sapiens, UniProt Q14994); assay: Gal4 hybrid reporter gene assay CAR (selectivity profiling)
T4 construct: expressed in transfected cells; host or cells: HEK293T
T4 sequence (Q14994 109-352 limits assumed): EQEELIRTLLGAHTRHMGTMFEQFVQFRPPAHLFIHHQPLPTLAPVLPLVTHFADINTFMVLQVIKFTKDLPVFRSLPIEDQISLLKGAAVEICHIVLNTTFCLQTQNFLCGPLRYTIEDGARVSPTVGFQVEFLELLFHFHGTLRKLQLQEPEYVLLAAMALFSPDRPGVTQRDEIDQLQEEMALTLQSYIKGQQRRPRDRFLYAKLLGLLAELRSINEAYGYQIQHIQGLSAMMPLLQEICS
Method: as §1, §2

PPARδ = biological target: T5, PPARδ (Homo sapiens, UniProt Q03181); assay: Gal4 hybrid reporter gene assay PPARδ (selectivity profiling)
T5 construct: expressed in transfected cells; host or cells: HEK293T
T5 sequence (Q03181 211-439 limits assumed): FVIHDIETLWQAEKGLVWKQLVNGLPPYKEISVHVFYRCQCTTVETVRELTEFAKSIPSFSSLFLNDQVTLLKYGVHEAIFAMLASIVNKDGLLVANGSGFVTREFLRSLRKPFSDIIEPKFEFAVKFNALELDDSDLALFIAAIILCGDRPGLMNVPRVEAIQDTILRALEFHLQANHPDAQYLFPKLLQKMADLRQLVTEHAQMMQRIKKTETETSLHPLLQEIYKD
Method: as §1, §2

RARα = biological target: T6, RARα (Homo sapiens, UniProt P10276); assay: Gal4 hybrid reporter gene assay RARα (selectivity profiling)
T6 construct: expressed in transfected cells; host or cells: HEK293T
T6 sequence (P10276 183-417 limits assumed): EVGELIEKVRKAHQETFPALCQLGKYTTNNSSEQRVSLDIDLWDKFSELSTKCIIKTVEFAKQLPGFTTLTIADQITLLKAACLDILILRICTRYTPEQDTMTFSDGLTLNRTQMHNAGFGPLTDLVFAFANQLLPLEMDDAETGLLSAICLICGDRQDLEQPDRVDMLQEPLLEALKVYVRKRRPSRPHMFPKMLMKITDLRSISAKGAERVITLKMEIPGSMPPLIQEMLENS
Method: as §1, §2

PPARα = biological target: T7, PPARα (Homo sapiens, UniProt Q07869); assay: Gal4 hybrid reporter gene assay PPARα (selectivity profiling)
T7 construct: expressed in transfected cells; host or cells: HEK293T
T7 sequence (Q07869 239-466 limits assumed): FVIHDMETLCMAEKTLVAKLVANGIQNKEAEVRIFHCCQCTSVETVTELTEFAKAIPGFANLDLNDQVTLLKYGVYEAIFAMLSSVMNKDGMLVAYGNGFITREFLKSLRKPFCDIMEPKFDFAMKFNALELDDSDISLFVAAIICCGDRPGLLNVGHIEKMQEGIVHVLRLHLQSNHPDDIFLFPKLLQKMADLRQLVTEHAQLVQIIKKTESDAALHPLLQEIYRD
Method: as §1, §2

CC(C)(C)c1cc(/C=N/NC(=O)c2ccc(N)cc2)cc(C(C)(C)C)c1 [Compound 7]
no activity: activity on FXR [1] | activity on PXR [2] | activity on VDR (vitamin D receptor [VDR]) | activity on CAR [3] | activity on PPARδ (PPARδ) | activity on RARα (RARα) | activity on PPARα (PPARα)
